In ChEMBL document CHEMBL1275572, “KPC-2-producing Enterobacter cloacae and pseudomonas putida coinfection in a liver transplant recipient” (2009):
In brackets after ≈: the same amount, converted by molar mass.

Columns and labels:
Enterobacter cloacae [1] = test: Antimicrobial activity against Enterobacter cloacae expressing beta-lactamase KPC-2 and SHV-12 obtained from criticall ill liver transplant recipient by broth microdilution method; type: functional
Pseudomonas putida [2] = test: Antimicrobial activity against Pseudomonas putida expressing beta-lactamase KPC-2 and SHV-12 obtained from criticall ill liver transplant recipient by broth microdilution method; type: functional
Enterobacter cloacae [3] = test: Antimicrobial activity against Enterobacter cloacae expressing beta-lactamase KPC-2 and SHV-12 obtained from criticall ill liver transplant recipient by broth microdilution method in presence of beta-lactamase inhibitor Tazobactam; type: functional
Pseudomonas putida [4] = test: Antimicrobial activity against Pseudomonas putida expressing beta-lactamase KPC-2 and SHV-12 obtained from criticall ill liver transplant recipient by broth microdilution method in presence of beta-lactamase inhibitor Tazobactam; type: functional
Acinetobacter sp. = test: Antimicrobial activity against Acinetobacter spp.; type: functional, organism-based

Description for Pseudomonas aeruginosa: Antimicrobial activity against Pseudomonas aeruginosa

Row | Compound | MIC (Enterobacter cloacae [1]) | MIC (Pseudomonas putida [2]) | further results
1 | NC[C@H]1O[C@H](O[C@H]2[C@H](O)[C@@H](O[C@H]3O[C@H](CO)[C@@H](O)[C@H](N)[C@H]3O)[C@H](N)C[C@@H]2N)[C@H](N)C[C@@H]1O [TOBRAMYCIN] | > 8 µg/mL | > 8 µg/mL | 
2 | CCN1CCN(C(=O)N[C@@H](C(=O)N[C@@H]2C(=O)N3[C@@H]2SC(C)(C)[C@@H]3C(=O)O)c2ccccc2)C(=O)C1=O [PIPERACILLIN] |  |  | MIC (Enterobacter cloacae [3]): > 128 µg/mL; MIC (Pseudomonas putida [4]): > 128 µg/mL
3 | C[C@H]1COc2c(N3CCN(C)CC3)c(F)cc3c(=O)c(C(=O)O)cn1c23.C[C@H]1COc2c(N3CCN(C)CC3)c(F)cc3c(=O)c(C(=O)O)cn1c23.O [LEVOFLOXACIN] | 2 µg/mL | > 16 µg/mL | 
4 | C[C@@H](O)[C@H]1C(=O)N2C(C(=O)O)=C(S[C@@H]3CN[C@H](C(=O)N(C)C)C3)[C@H](C)[C@H]12 [MEROPENEM] | > 4 µg/mL | > 4 µg/mL | 
5 | CC(C)(O/N=C(\C(=O)N[C@@H]1C(=O)N2C(C(=O)[O-])=C(C[n+]3ccccc3)CS[C@H]12)c1csc(N)n1)C(=O)O [CEFTAZIDIME] | > 32 µg/mL | > 32 µg/mL | 
6 | NCC[C@H](O)C(=O)N[C@@H]1C[C@H](N)[C@@H](O[C@H]2O[C@H](CN)[C@@H](O)[C@H](O)[C@H]2O)[C@H](O)[C@H]1O[C@H]1O[C@H](CO)[C@@H](O)[C@H](N)[C@H]1O [AMIKACIN] | 16 µg/mL (≈ 27.3 µM) | 1 µg/mL (≈ 1.71 µM) | 
7 | CO/N=C(\C(=O)N[C@@H]1C(=O)N2C(C(=O)[O-])=C(C[N+]3(C)CCCC3)CS[C@H]12)c1csc(N)n1 |  | > 32 µg/mL | 
8 | CO[C@@]1(NC(=O)Cc2cccs2)C(=O)N2C(C(=O)O)=C(COC(N)=O)CS[C@@H]21 [CEFOXITIN] | > 32 µg/mL | > 32 µg/mL | 
9 | C[C@@H](O)[C@H]1C(=O)N2C(C(=O)O)=C(S[C@@H]3CN[C@H](C(=O)Nc4cccc(C(=O)O)c4)C3)[C@H](C)[C@H]12 | > 8 µg/mL | > 8 µg/mL | 
10 | C[C@@H](O)[C@H]1C(=O)N2C(C(=O)O)=C(SCCNC=N)C[C@H]12 [IMIPENEM ANHYDROUS] | > 4 µg/mL | > 4 µg/mL | 
11 | COLISTIN | > 16 µg/mL | 2 µg/mL | MIC (Acinetobacter sp.): > 16 µg/mL; MIC (Pseudomonas aeruginosa): > 16 µg/mL
12 | CO/N=C(\C(=O)N[C@@H]1C(=O)N2C(C(=O)O)=C(CSc3nc(=O)c(O)nn3C)CS[C@H]12)c1csc(N)n1 [CEFTRIAXONE] | > 32 µg/mL | > 32 µg/mL | 
13 | GENTAMICIN | > 8 µg/mL | > 8 µg/mL | 
